In publication PMC11488110 (Theranostics, 2024):

Key:
hERG channel = target: T1, hERG channel (Homo sapiens, UniProt Q12809); test: biochemical; conditions: fluorescence polarization binding assay
T1 construct: purchased Invitrogen PV5365
Experimental: An hERG channel binding assay was performed using the Predictor hERG Fluorescence Polarization Assay Kit (PV5365, Invitrogen). […] Fluorescence intensity (excitation at 530 nm, emission at 590 nm) was measured using a multi-mode microplate reader Synergy Neo (Biotek). […]
Ta b l e S2 . CYP inhibition, microsomal stability, and hERG in hibition of 5a .
CYP inhibitiona Microsomal stabilityb
( % of c ont rol ac ti vit y) (% of remaining compound) hERG inhibitionc (IC50, μ M) […]
aCytochrome P450 (CYP450) enzyme activity was measured by incubating CYP450 enzyme isotype-specific substrates and liver microsomes in the presence of the test compound (10 μM) for 15 min. Data are expressed as percent of CYP enzyme activity relative to that of t he v ehicle-treated control. bThe test compound was incubated with microsomes for 30 min and the percentage of the remaining compound was measured via liquid chromatography- tandem mass spectrometry (LC-MS/MS). cHuman Ether-à -go -go -related gene (hERG) channel binding assay was performed using a predictor hERG fluorescence polarization assay (Invitrogen); IC50 values were calculated with non-linear regression fit with four parameters. a- cThe results of these three assays were obtained through the in vitro ADME/Tox study service of KMEDIhub, a contract research organization (CRO). The reported measurements are the mean of […]

primary mouse astrocytes = test: LPS/IFNγ-induced inflammatory responses in primary mouse astrocytes; format: cell-based
[1] = system: C57BL/6N mice with LPS-induced neuroinflammation; test: LPS-induced neuroinflammation mouse model; format: in vivo
[2] = 30 mg/kg p.o. 10 days, LPS 0.3 mg/kg 7 days
[3] = 30 mg/kg/day p.o., LPS 0.3 mg/kg/day i.p.

T1 sequence (Q12809 whole entry): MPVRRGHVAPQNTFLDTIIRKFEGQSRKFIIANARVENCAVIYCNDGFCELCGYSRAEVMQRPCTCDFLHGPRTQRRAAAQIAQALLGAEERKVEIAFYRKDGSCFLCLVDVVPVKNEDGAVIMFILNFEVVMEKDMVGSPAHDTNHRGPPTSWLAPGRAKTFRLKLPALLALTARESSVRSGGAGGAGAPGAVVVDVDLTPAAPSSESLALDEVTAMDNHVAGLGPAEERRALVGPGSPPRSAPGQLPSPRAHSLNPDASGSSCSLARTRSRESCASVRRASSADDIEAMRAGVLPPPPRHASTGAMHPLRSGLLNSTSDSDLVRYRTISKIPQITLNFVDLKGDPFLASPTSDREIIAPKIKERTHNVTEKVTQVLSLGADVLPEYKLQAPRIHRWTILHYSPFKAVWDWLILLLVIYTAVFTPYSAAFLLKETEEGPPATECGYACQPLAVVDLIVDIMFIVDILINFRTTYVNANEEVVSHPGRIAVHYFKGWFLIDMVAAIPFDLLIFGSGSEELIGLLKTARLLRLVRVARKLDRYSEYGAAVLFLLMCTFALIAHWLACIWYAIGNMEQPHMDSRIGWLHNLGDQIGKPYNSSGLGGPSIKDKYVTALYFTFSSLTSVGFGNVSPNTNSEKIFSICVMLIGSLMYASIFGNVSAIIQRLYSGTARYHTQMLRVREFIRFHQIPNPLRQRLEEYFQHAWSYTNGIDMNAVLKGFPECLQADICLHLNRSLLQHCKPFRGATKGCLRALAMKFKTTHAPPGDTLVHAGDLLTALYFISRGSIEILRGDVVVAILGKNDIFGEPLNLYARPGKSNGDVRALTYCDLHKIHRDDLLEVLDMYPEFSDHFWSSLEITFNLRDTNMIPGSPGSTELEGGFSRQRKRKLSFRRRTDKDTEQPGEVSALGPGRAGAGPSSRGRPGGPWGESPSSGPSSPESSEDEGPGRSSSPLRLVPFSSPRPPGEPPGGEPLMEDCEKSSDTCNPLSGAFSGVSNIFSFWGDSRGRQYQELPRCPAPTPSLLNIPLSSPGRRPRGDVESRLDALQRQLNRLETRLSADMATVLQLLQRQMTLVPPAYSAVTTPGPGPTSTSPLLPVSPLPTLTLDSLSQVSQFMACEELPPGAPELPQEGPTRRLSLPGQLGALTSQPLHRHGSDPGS

Cc1cc(SCc2[se]c(-c3ccc(C(F)(F)F)cc3)nc2C)ccc1OCC(=O)O [Compound 5a, {2-Methyl-4-[4-methyl-2-(4-trifluoromethyl-phenyl)-selenazol-5-yl-methylsulfanyl]-phenoxy}-acetic acid]
hERG inhibition (IC50) (hERG channel): low inhibitory effects
IC50 (hERG channel; read-out: hERG inhibition (IC50)): 9 µM
LPS/IFNγ-induced NO release (primary mouse astrocytes; primary astrocytes): significantly reduced NO release
LPS/IFNγ-induced production of TNF-α, IL-1β and IL-6 (primary mouse astrocytes; primary astrocytes): suppressed the production of pro-inflammatory cytokines
Anti-inflammatory effects on astrocytes compared with GW501516 (primary mouse astrocytes; same concentration): superior to those of GW501516
CD86 expression in IBA1-positive microglia [1, 2]: significantly reduced the expression
GFAP and IBA1 immunoreactivity, hippocampus and cortex [1, 2]: inhibited
Plasma TNF-α and IL-6 [1, 2]: prevented the LPS-induced increases
Spleen size and weight [1, 2]: reduced the size and weight of spleens
Open-field motor activity (traveled distance, immobility time) [1, 3]: improved motor activity
Open-field time spent in the center [1, 3]: spent more time in the center
Passive avoidance step-through latency [1, 3]: significantly prevented this decrease
Y-maze number of arm entries [1, 3]: increased the number of arm entries
Y-maze spontaneous alternation [1, 3]: higher percentage of spontaneous alternations
